Assay: xn = mol fraction of the nth substance listed
Details: 101 kPa, x1 = 0.5

O=C1CCCCCN1 + CCCC[N+](CCCC)(CCCC)CCCC.[Cl-]
Details | electrical conductivity [S/m]
293.15 K | 0.0409
295.65 K | 0.0459
298.15 K | 0.0554
300.65 K | 0.0726
303.15 K | 0.0934
305.65 K | 0.116
308.15 K | 0.142
310.65 K | 0.172
318.15 K | 0.31
320.65 K | 0.368
323.15 K | 0.431
325.65 K | 0.49
330.65 K | 0.61
333.15 K | 0.707
